Test results: patent US20240398784A1, “C-LINKED ISOQUINOLINE AMIDES AS LRRK2 INHIBITORS, PHARMACEUTICAL COMPOSITIONS, AND USES THEREOF” (Merck Sharp & Dohme LLC, priority 2021, published 2024)

target: LRRK2 G2019S (Homo sapiens, UniProt Q5S007, G2019S); assay: LRRK2 G2019S Km ATP LanthaScreen assay; assay type: biochemical; conditions: not given
Sequence (Q5S007 whole entry G2019S): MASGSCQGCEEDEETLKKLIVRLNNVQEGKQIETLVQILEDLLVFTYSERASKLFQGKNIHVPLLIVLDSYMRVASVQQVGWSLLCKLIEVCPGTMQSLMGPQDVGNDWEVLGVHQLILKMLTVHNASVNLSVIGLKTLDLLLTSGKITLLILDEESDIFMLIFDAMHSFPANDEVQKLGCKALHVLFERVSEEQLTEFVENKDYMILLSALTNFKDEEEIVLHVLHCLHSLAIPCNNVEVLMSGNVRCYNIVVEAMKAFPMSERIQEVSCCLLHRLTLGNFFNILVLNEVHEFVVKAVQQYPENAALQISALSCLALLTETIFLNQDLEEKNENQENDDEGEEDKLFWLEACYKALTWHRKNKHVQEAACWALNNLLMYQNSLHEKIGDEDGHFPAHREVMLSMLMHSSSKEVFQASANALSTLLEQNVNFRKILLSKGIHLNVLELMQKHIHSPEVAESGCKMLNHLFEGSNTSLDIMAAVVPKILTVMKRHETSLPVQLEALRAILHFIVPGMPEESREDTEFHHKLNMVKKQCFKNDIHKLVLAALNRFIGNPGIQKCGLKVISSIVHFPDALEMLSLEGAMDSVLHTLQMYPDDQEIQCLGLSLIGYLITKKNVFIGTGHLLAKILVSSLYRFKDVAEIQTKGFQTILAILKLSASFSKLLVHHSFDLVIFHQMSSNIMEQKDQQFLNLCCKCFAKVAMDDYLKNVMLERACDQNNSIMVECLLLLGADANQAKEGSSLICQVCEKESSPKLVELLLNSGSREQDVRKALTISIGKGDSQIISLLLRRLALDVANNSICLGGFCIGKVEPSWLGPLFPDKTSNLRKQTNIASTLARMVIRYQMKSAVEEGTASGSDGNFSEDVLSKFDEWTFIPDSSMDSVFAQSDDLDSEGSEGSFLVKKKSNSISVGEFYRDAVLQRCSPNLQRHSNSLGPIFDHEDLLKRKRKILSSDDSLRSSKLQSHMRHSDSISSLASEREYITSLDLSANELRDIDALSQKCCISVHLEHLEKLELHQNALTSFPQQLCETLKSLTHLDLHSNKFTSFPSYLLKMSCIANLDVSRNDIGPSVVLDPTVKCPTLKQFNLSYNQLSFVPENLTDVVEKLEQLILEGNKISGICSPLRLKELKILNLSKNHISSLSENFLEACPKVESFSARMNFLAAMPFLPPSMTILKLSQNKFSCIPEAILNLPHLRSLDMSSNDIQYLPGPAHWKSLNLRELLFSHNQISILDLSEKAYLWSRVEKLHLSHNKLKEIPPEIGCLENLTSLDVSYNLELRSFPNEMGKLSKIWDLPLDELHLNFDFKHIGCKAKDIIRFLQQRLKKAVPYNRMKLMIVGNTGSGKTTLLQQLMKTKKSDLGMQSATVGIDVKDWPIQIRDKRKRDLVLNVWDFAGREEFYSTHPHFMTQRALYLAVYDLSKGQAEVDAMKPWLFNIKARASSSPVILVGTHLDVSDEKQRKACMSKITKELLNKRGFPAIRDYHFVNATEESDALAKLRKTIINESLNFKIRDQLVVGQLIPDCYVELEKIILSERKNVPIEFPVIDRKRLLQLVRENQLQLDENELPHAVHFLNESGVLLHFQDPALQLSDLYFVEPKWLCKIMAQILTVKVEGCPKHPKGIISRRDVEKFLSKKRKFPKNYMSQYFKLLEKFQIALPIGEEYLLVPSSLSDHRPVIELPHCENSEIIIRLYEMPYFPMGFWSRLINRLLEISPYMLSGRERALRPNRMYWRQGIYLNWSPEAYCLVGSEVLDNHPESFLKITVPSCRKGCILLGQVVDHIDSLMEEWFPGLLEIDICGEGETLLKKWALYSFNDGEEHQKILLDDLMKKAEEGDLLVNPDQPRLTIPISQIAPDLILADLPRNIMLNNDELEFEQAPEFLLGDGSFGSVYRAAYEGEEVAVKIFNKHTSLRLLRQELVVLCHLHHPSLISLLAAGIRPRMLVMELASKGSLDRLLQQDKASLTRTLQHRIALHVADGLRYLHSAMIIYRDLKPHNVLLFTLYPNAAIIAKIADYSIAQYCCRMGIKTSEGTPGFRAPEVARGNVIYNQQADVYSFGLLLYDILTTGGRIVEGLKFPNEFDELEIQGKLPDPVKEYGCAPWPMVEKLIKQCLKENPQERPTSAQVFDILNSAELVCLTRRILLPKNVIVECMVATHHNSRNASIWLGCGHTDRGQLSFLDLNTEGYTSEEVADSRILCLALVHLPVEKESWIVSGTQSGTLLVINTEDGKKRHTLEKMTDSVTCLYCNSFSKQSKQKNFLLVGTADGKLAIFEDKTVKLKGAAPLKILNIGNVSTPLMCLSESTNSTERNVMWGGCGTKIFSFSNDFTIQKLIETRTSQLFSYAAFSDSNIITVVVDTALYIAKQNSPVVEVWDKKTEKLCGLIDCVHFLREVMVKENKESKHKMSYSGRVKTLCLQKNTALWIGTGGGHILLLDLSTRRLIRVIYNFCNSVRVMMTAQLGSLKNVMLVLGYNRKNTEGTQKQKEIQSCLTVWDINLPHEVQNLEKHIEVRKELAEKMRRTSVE

| LRRK2 pIC50 | Structure (SMILES) |
| --- | --- |
| 10.09 | Cn1ncc(C2CC2C(=O)Nc2cc3cc(C4CCN(C5(C)COCC5O)CC4)c(Cl)cc3cn2)n1 [Ex-20.1, (1R,2R and 1S,2S)-N-(7-chloro-6-(1-(4-hydroxy-3-methyltetrahydrofuran-3-yl)piperidin-4-yl)isoquinolin-3-yl)-2-(2-methyl-2H-1,2,3-triazol-4-yl)cyclopropane-1-carboxamide] |

same assay, conditions: read-out: LRRK2 pIC50 (converted)

| IC50 | Structure (SMILES) |
| --- | --- |
| 0.0155 µM | CCC1C(C(=O)Nc2cc3cc(C4CC45CC5)c(Cl)cc3cn2)C1c1cnn(C)c1 (stereo not shown) [Ex-2.98] |
| 0.00229 µM | N#CC1(c2ccc3cnc(NC(=O)C4CC4)cc3c2)CC12CC2 (single isomer, unassigned) [Ex-18.1, N-(6-(1-cyanospiro[2.2]pentan-1-yl)isoquinolin-3-yl)cyclopropanecarboxamide] |
| 0.0105 µM | N#CC1(c2ccc3cnc(NC(=O)C4CC45CCOC5)cc3c2)CC12CC2 (stereo not shown) [Ex-2.64] |
| 81300 µM | CC(C)Cn1nccc1C1CC1C(=O)Nc1cc2cc(C3CCN(C4(C)COCC4O)CC3)c(Cl)cc2cn1 (single isomer, unassigned) [Ex-4.62, N-(7-chloro-6-(1-(4-hydroxy-3-methyltetrahydrofuran-3-yl)piperidin-4-yl)isoquinolin-3-yl)-2-(1-isobutyl-1H-pyrazol-5-yl)cyclopropane-1-carboxamide] |
| 0.0263 µM | CC(CC#N)c1cc2cc(NC(=O)C3CC3c3ccccn3)ncc2cc1Cl (single isomer, unassigned) [Ex-9.21, N-(7-chloro-6-(1-cyanopropan-2-yl)isoquinolin-3-yl)-2-(pyridin-2-yl)cyclopropane-1-carboxamide] |
| 0.000661 µM | CCC1C(C(=O)Nc2cc3cc(C4(C#N)CC45CC5)ccc3cn2)C1c1cnn(C)c1 (single isomer, unassigned) [Ex-1.25, (1R,3R or 1S,3S)-N-(6-((R or S)-1-cyanospiro[2.2]pentan-1-yl)isoquinolin-3-yl)-2-ethyl-3-(1-methyl-1H-pyrazol-4-yl)cyclopropane-1-carboxamide] |
| 0.00282 µM | O=C(Nc1cc2cc(C3CCN(C4COCC4O)CC3)c(Cl)cc2cn1)C1CC12CCOCC2 (single isomer, unassigned) [Ex-4.2, (R or S)-N-(7-chloro-6-(1-((3R,4R or 3R, 4R)-4-hydroxytetrahydrofuran-3-yl)piperidin-4-yl)isoquinolin-3-yl)-6-oxaspiro[2.5]octane-1-carboxamide] |
| 0.457 µM | Cn1ncc(C2CC2C(=O)Nc2cc3cc(C4(C#N)CC45CC5)ccc3cn2)c1C(F)(F)F (stereo not shown) [Ex-2.47] |
| 0.000288 µM | CC(C(=O)Nc1cc2cc(C3CCN(C4(C)COCC4O)CC3)c(Cl)cc2cn1)c1cnn(C)c1 (stereo not shown) [Ex-2.106] |
| 0.00288 µM | O=C(Nc1cc2cc(C3CCN(C4COCC4O)CC3)c(Cl)cc2cn1)C1CC1 (single isomer, unassigned) [Ex-12.5, N-(7-chloro-6-(1-(4-hydroxytetrahydrofuran-3-yl)piperidin-4-yl)isoquinolin-3-yl)cyclopropanecarboxamide] |
| 0.0055 µM | O=C(Nc1cc2cc(C3CCN(C4COC4)CC3)c(Cl)cc2cn1)C1CCCC1 [Ex-7.5, N-(7-chloro-6-(1-(oxetan-3-yl)piperidin-4-yl)isoquinolin-3-yl)cyclopentanecarboxamide] |
| 0.000398 µM | CC1(N2CCC(c3cc4cc(NC(=O)CC5CCOCC5)ncc4cc3Cl)CC2)COCC1O (single isomer, unassigned) [Ex-1.39, N-(7-chloro-6-(1-((3R,4R or 3S,4S)-4-hydroxy-3-methyltetrahydrofuran-3-yl)piperidin-4-yl)isoquinolin-3-yl)-2-(tetrahydro-2H-pyran-4-yl)acetamide] |
| 0.002 µM | CC1(C)CC1C(=O)Nc1cc2cc(C3CCN(C4(C)COCC4O)CC3)c(Cl)cc2cn1 (stereo not shown) [Ex-2.11] |
| 0.00708 µM | N#CC1(c2ccc3cnc(NC(=O)Cc4cnn(C(F)F)c4)cc3c2)CC12CC2 (single isomer, unassigned) [Ex-1.43, (R or S)-N-(6-(1-cyanospiro[2.2]pentan-1-yl)isoquinolin-3-yl)-2-(1-(difluoromethyl)-1H-pyrazol-4-yl)acetamide] |
| 0.000324 µM | CC(C)OC1CCC(C(=O)Nc2cc3cc(C4CCN(C5(C)COCC5O)CC4)c(Cl)cc3cn2)CO1 (stereo not shown) [Ex-2.27] |
| 0.389 µM | CC1(C)CC(C(=O)Nc2cc3cc(C4CCC(N5CCC(F)C5)CC4)c(Cl)cc3cn2)CCO1 (single isomer, unassigned) [Ex-5.16, N-(7-chloro-6-(4-(3-fluoropyrrolidin-1-yl)cyclohexyl)isoquinolin-3-yl)-2,2-dimethyltetrahydro-2H-pyran-4-carboxamid] |
| 0.000132 µM | Cc1cc2cnc(NC(=O)C3CC3c3ccccn3)cc2cc1C1CCN(C2(C)CCOC2)CC1 (single isomer, unassigned) [Ex-16.9, N-(7-methyl-6-(1-(3-methyltetrahydrofuran-3-yl)piperidin-4-yl)isoquinolin-3-yl)-2-(pyridin-2-yl)cyclopropane-1-carboxamide] |
| 0.0316 µM | N#CC1(c2ccc3cnc(NC(=O)C4CCN(CC(F)(F)F)C4)cc3c2)CC12CC2 (stereo not shown) [Ex-2.43] |

| IC50 | Structure (SMILES) |
| --- | --- |
| 8.13e-05 µM | Cn1cc(C2CC2C(=O)Nc2cc3cc(C4CCN(C5(C)COCC5O)CC4)c(Cl)cc3cn2)cn1 (stereo not shown) [Ex-2.37] |
| 0.00038 µM | CC1(N2CCC(c3cc4cc(NC(=O)C5C6CCOCC65)ncc4cc3Cl)CC2)COCC1F (single isomer, unassigned) [Ex-6.42, N-(7-chloro-6-(1-(4-fluoro-3-methyltetrahydrofuran-3-yl)piperidin-4-yl)isoquinolin-3-yl)-3-oxabicyclo[4.1.0]heptane-7-carboxamide] |
| 0.479 µM | CC1(C)CC(C(=O)Nc2cc3cc(C4CCC(N5CCC(F)C5)CC4)c(Cl)cc3cn2)CCO1 (single isomer, unassigned) [Ex-5.13, N-(7-chloro-6-(4-(3-fluoropyrrolidin-1-yl)cyclohexyl)isoquinolin-3-yl)-2,2-dimethyltetrahydro-2H-pyran-4-carboxamid] |
| 8.13e-05 µM | CC1(N2CCC(c3cc4cc(NC(=O)C5CC56CC6)ncc4cc3Cl)CC2)COCC1F (stereo not shown) [Ex-2.96] |
| 0.00912 µM | O=C(Nc1cc2cc(C3CCN(C4COC4)CC3)c(Cl)cc2cn1)C1(F)CC1 [Ex-7.8, N-(7-chloro-6-(1-(oxetan-3-yl)piperidin-4-yl)isoquinolin-3-yl)-1-fluorocyclopropane-1-carboxamide] |
| 0.00617 µM | CC1(C)CCC(C(=O)Nc2cc3cc(C4CCC(N5CCC(F)C5)CC4)c(Cl)cc3cn2)CO1 (single isomer, unassigned) [Ex-5.22, N-(7-chloro-6-(4-(3-fluoropyrrolidin-1-yl)cyclohexyl)isoquinolin-3-yl)-6,6-dimethyltetrahydro-2H-pyran-3-carboxamide] |
| 0.00245 µM | O=C(Nc1cc2cc(C3CCN(C4COC4)CC3)c(Cl)cc2cn1)[C@H]1C[C@H]1F [Ex-1.13, (1R,2R)-N-(7-chloro-6-(1-(oxetan-3-yl)piperidin-4-yl)isoquinolin-3-yl)-2-fluorocyclopropane-1-carboxamide] |
| 0.0219 µM | Cc1cc2cnc(NC(=O)C3CC3c3ccccn3)cc2cc1C1CCN(C2(C)COCC2F)CC1 (single isomer, unassigned) [Ex-13.4, (1R,2R or 1S,2S)-N-(6-(1-((3R,4R or 3S,4S)-4-fluoro-3-methyltetrahydrofuran-3-yl)piperidin-4-yl)-7-methylisoquinolin-3-yl)-2-(pyridin-2-yl)cyclopropane-1-carboxamide] |
| 0.000182 µM | CC1(N2CCC(c3cc4cc(NC(=O)C5C6CCCC65)ncc4cc3Cl)CC2)COCC1O (single isomer, unassigned) [Ex-1.20, N-(7-chloro-6-(1-((3R,4R or 3S,4S)-4-hydroxy-3-methyltetrahydrofuran-3-yl)piperidin-4-yl)isoquinolin-3-yl)bicyclo[3.1.0]hexane-6-carboxamide] |
| 0.0115 µM | CC(C)(O)C1CC1C(=O)Nc1cc2cc(C3CCN(C4(C)COCC4O)CC3)c(Cl)cc2cn1 (stereo not shown) [Ex-2.20] |
| 0.000724 µM | CC1(C)CC(C(=O)Nc2cc3cc(C4CCN(C5(C)CCOC5)CC4)c(Cl)cc3cn2)CCO1 (single isomer, unassigned) [Ex-6.47, N-(7-chloro-6-(1-(3-methyltetrahydrofuran-3-yl)piperidin-4-yl)isoquinolin-3-yl)-2,2-dimethyltetrahydro-2H-pyran-4-carboxamide] |
| 0.00427 µM | CC1(N2CCC(c3cc4cc(NC(=O)C5CC56CCC(F)(F)CC6)ncc4cc3Cl)CC2)COCC1O (stereo not shown) [Ex-2.17] |
| 0.000661 µM | COC1CC(C(=O)Nc2cc3cc(C4(C#N)CC45CC5)ccc3cn2)C1 (single isomer, unassigned) [Ex-1.2, (1R,3R or 1S,3S)-N-(6-((R or S)-1-cyanospiro[2.2]pentan-1-yl)isoquinolin-3-yl)-3-methoxycyclobutane-1-carboxamide] |
| 8.13e-05 µM | CC(C)(O)C1CC1C(=O)Nc1cc2cc(C3CCN(C4(C)COCC4O)CC3)c(Cl)cc2cn1 (stereo not shown) [Ex-2.21] |
| 0.0105 µM | Cc1cc2cnc(NC(=O)C3CC3c3cnn(C)c3)cc2cc1C1CC12CC2 (single isomer, unassigned) [Ex-16.3, 2-(1-methyl-1H-pyrazol-4-yl)-N-(7-methyl-6-(spiro[2.2]pentan-1-yl)isoquinolin-3-yl)cyclopropane-1-carboxamide] |
| 0.00214 µM | CC1(C)CC(C(=O)Nc2cc3cc(C4CCN(C5(C)CCOC5)CC4)c(Cl)cc3cn2)CCO1 (single isomer, unassigned) [Ex-6.45, N-(7-chloro-6-(1-(3-methyltetrahydrofuran-3-yl)piperidin-4-yl)isoquinolin-3-yl)-2,2-dimethyltetrahydro-2H-pyran-4-carboxamide] |
| 0.00269 µM | CC(C)(O)C1CC1C(=O)Nc1cc2cc(C3CCN(C4(C)CCOC4)CC3)c(Cl)cc2cn1 (single isomer, unassigned) [Ex-6.14, N-(7-chloro-6-(1-(3-methyltetrahydrofuran-3-yl)piperidin-4-yl)isoquinolin-3-yl)-2-(2-hydroxypropan-2-yl)cyclopropane-1-carboxamide] |
| 0.0832 µM | CC1C(C(=O)Nc2cc3cc(C4CCN(C5(C)COCC5O)CC4)c(Cl)cc3cn2)C1c1ccccn1 (single isomer, unassigned) [Ex-4.51, N-(7-chloro-6-(1-(4-hydroxy-3-methyltetrahydrofuran-3-yl)piperidin-4-yl)isoquinolin-3-yl)-2-methyl-3-(pyridin-2-yl)cyclopropane-1-carboxamide] |
